Experimental data from US20230227492A1 (priority 2020, published 2023).
Like-named read-outs stand apart in the source and are kept apart here.

Legend:
[1] = molecular target: T1, rat AR ligand-binding domain tagged with His and GST [AR-LBD (His-GST)] (Rattus norvegicus, UniProt P15207); experiment: AR fluorescence polarization (FP) binding assay; settings: Fluormone AL Green
T1 construct: purchased Life Technologies (Carlsbad, Calif.)
T1 sequence (P15207 651-882 limits assumed): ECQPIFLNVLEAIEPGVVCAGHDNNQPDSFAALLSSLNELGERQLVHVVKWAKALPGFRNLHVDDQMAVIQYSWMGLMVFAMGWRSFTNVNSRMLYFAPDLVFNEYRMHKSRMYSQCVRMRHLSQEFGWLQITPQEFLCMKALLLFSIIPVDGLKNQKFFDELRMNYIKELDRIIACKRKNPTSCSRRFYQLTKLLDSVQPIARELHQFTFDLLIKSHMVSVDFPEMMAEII
Description: (§1) Receptor Binding Assay Information—In certain of the following examples, hormone receptor binding assays were used to determine the receptor binding activities of monomeric compound embodiments to androgen (AR), progesterone (PR), estrogen alpha (ERα) or glucocorticoid (GR) receptors. For AR, PR or ERα, the respective receptors are added to novel, tight-binding, selective ligands tagged with a fluorescent molecule, to form a receptor-ligand complex with a high polarization value. This complex is then added to individual monomeric compound embodiments that are contained in well plates. If the monomeric compound binds to the respective receptors, it displaces the fluorescent ligand from the complex, resulting in a low polarization value. In such embodiments, the monomeric compound is characterized as a competitor. […] In such embodiments, the monomeric compound is characterized as a noncompetitor. The shift in polarization value in the presence of the monomeric compound is used to determine the relative affinity of monomeric compound for the receptor.
(§2) For the androgen, progesterone, and estrogen receptor binding assays described herein, the preparation of reagents and test procedures is performed according to the manufacturer's instructions (Life Technologies, Carlsbad, Calif.). The plates are covered to protect the reagents from light and incubated at 20-25° C. for 4-8 hrs.
In this example, AR binding activity and ER binding activity of certain reference compounds and monomeric compound embodiments wherein the R^2 group is not present was assessed (such as to test compound activity after R^2 cleavage). The AR fluorescence polarization (FP) assay was used and provides a sensitive and efficient method for high-throughput screening of potential AR ligands. The kit uses rat AR ligand-binding domain tagged with His and GST [AR-LBD (His-GST)], and a tight-binding, selective fluorescent androgen ligand (Fluormone™ AL Green) in a homogenous mix-and-read assay format. The androgen receptor [AR-LBD (His-GST)] was added to a fluorescent androgen ligand (Fluormone™ AL Green) to form an AR-LBD (His-GST)/Fluormone™ AL Green complex resulting in a high polarization value. This complex was then added to individual compound embodiments in 96-well plates. Competitors displaced the fluorescent Fluormone™ AL Green ligand from the AR-LBD (His-GST)/Fluormone™ AL Green complex, causing the fluorescent ligand to tumble rapidly during its fluorescence lifetime, resulting in a low polarization value. […] The shift in polarization value in the presence of compound embodiments used to determine relative affinity of compound embodiments for AR-LBD (His-GST).

[2] = molecular target: T2, full-length, untagged, human estrogen receptors (ERα) (Homo sapiens, UniProt P03372); experiment: ERα fluorescence polarization (FP) binding assay
T2 construct: insect cell-expressed, full-length, untagged, human estrogen receptors; purchased Life Technologies (Carlsbad, Calif.); host or cells: insect cells
T2 sequence (P03372 whole entry): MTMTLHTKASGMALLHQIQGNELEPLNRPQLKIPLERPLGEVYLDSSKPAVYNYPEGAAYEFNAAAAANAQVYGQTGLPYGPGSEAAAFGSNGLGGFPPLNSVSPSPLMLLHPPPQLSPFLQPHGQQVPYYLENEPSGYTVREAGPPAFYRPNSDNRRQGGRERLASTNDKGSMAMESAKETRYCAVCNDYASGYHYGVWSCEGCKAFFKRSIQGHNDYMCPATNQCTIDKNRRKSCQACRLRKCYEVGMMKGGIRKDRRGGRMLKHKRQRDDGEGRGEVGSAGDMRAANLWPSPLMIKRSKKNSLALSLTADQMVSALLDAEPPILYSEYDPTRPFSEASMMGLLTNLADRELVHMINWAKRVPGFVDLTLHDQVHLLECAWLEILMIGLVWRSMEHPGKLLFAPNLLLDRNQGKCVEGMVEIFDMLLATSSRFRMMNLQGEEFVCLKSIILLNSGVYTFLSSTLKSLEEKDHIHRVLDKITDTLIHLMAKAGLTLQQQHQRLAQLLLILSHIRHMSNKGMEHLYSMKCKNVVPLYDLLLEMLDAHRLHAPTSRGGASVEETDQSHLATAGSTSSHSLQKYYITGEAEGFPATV
Description: as §1, §2
For ERα data, the ERα fluorescence polarization (FP) assay was used, which provides a sensitive and efficient method for high-throughput screening of potential ER ligands. The kit uses insect cell-expressed, full-length, untagged, human estrogen receptors and a tight-binding, fluorescent estrogen ligand (Fluormone™ ES2) in a homogenous mix-and-read assay format. ERα was added to a fluorescent estrogen ligand to form an ERα/Fluormone™ ES2 complex. This complex was then added to individual compound embodiments contained in 96-well plates. […] The change in polarization value in the presence of a compound embodiment was used to determine relative affinity of a compound embodiment for ERα.

[3] = molecular target: T3, human PR ligand-binding domain tagged with GST [PR-LBD (GST)] (Homo sapiens, UniProt P06401); experiment: PR fluorescence polarization (FP) binding assay; settings: Fluormone PL Green
T3 construct: purchased Life Technologies (Carlsbad, Calif.)
T3 sequence (P06401 679-913 limits assumed): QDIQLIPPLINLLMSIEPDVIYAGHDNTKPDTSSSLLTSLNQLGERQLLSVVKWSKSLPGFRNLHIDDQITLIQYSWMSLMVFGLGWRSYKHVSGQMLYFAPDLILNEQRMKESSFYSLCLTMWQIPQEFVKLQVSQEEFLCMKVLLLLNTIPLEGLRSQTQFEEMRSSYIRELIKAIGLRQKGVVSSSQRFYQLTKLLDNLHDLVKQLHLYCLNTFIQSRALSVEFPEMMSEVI
Description: as §1
as §2, with “hrs. The fluorescence polarization of the samples is measured with 485 nm excitation and 530 nm emission interference filters.” for “hrs.”
In this example, PR binding activity was assessed using the PR fluorescence polarization (FP) assay, which provides a sensitive and efficient method for high-throughput screening of potential PR ligands. The kit uses human PR ligand-binding domain tagged with GST [PR-LBD (GST)], and a tight-binding, selective fluorescent progesterone ligand (Fluormone™ PL Green) in a homogenous mix-and-read assay format. Progesterone receptor [PR-LBD (GST)] was added to a fluorescent progesterone ligand (Fluormone™ PL Green) to form a PR-LBD (GST)/Fluormone™ PL Green complex resulting in a high polarization value. This complex was then added to individual compound embodiments in 96-well plates. Competitors displaced the fluorescent Fluormone™ PL Green ligand from the PR-LBD (GST)/Fluormone™ PL Green complex, causing the fluorescent ligand to tumble rapidly during its fluorescence lifetime, resulting in a low polarization value. […] The shift in polarization value in the presence of compound embodiments was used to determine relative affinity of compound embodiments for PR-LBD (GST). The fluorescence polarization of the samples was measured with 485 nm excitation and 530 nm emission interference filters. Results for monomeric compound embodiments wherein the R^2 groups is not present (such as to test compound activity after R^2 cleavage) are provided in Table 4.

[4] = molecular target: T4, human full-length androgen receptor (Homo sapiens, UniProt P10275); experiment: AR Transactivation Assay (MMTV-luciferase, HEC-1-B cells); type: cell-based
T4 sequence (P10275 1-920): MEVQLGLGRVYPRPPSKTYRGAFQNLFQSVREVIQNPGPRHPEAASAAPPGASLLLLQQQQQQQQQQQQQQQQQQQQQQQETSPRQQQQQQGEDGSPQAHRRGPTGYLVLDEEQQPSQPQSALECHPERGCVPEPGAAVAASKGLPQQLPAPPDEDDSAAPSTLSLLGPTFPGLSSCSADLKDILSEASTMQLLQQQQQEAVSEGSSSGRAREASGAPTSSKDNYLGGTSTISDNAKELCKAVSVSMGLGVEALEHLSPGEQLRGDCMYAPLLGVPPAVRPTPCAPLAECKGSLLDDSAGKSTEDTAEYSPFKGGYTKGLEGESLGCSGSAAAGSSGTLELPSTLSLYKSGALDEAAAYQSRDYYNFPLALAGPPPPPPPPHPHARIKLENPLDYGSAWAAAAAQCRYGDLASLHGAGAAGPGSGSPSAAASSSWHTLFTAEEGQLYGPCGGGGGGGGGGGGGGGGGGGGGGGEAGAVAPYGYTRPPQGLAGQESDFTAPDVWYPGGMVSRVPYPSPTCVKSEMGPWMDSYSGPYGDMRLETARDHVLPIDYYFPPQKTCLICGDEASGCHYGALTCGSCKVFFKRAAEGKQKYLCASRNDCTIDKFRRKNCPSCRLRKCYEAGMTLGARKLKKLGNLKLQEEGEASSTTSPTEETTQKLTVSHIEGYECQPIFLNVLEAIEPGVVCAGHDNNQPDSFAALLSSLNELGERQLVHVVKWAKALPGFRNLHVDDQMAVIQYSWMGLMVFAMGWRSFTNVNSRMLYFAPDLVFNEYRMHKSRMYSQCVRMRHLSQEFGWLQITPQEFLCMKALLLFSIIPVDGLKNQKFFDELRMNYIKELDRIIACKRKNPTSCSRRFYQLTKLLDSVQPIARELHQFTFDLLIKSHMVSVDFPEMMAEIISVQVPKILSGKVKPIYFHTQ

[5] = human, plasma
[6] = system: castrated weanling rats; settings: rat, in vivo
[7] = system: castrated Sprague-Dawley male rats; experiment: Hershberger assay, ventral prostate weights (7α-methyl testosterone); type: in vivo, rat
[8] = molecular target: T5, recombinant human aromatase (Homo sapiens, UniProt P11511); experiment: Aromatization by recombinant human aromatase (CYP19+P450 reductase Supersomes); settings: 10 μM, 37° C.
T5 sequence (P11511 1-503): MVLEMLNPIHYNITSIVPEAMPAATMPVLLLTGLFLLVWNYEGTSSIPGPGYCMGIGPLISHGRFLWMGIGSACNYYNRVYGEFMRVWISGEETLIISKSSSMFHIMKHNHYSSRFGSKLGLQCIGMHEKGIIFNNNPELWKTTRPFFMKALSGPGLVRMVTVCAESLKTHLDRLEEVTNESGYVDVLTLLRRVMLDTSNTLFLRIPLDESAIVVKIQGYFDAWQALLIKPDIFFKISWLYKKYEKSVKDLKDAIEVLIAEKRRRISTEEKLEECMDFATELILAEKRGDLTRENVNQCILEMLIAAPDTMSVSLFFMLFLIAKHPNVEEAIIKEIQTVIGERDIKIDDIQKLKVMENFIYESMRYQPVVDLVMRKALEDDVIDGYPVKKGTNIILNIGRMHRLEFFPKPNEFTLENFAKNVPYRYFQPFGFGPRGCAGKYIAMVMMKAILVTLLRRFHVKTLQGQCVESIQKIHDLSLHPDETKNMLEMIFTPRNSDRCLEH

[9] = fluorescence polarization, Fluormone ES2, read-out: IC50 (nM) ERα

Compound	IC50 (nM) AR [1] [nM]	IC50 [2, 9] [nM]	IC50 ([3]; read-out: IC50 (nM) PR binding) [nM]	% remaining at 15 min [8] [%]	% remaining at 30 min [8] [%]	% remaining at 60 min [8] [%]	other results
CC1Cc2cc(O)ccc2C2CCC3(C)C(O)CCC3C12 (stereo not drawn) [CDB 4915, 7α-methyl estradiol]	20.1	10.3	502	–	–	–	EC50 [4]: 39 nM
CC1CC2(C)C(O)CCC2C2C(C)Cc3cc(O)ccc3C12 (stereo not drawn) [CDB 4916, 7α, 11β-dimethyl estradiol]	17.8	13.8	165	–	–	–	EC50 [4]: 3.68 nM
CC1CC2(C)C(O)CCC2C2CCc3cc(O)ccc3C12 (stereo not drawn) [CDB 4917, 11β-methyl estradiol]	12.8	12	120	–	–	–	–
C[C@@H]1CC2=CC(=O)CC[C@@H]2[C@H]2CC[C@]3(C)[C@@H](O)CC[C@H]3[C@@H]21 [CDB-902, 7-α-methylnortestosterone, reference compound]	–	–	–	–	–	–	Parent molecule % remaining after 24 hours at 37° C. [5]: 100≤ %
C[C@@H]1CC2=CC(=O)CCC2C2C1C1CC[C@H](OC(=O)CCCCCCCCCCC(=O)O[C@H]3CCC4C5C(C6CCC(=O)C=C6C[C@H]5C)[C@@H](C)C[C@@]43C)[C@@]1(C)C[C@@H]2C (stereo partly drawn) [CDB-4867]	–	–	–	–	–	–	AUC (Levator ani muscle) [6]: 5059 mg*week; AUC (Ventral Prostate) [6]: 529.5 mg*week; duration of levator ani muscle weight increase (anabolic effects) [6]: sustained until Day 99 (Week 14); duration of ventral prostate weight increase (androgenic effects) [6]: sustained until Day 99 (Week 14); ventral prostate gland weights relative to vehicle [6]: increased; Parent molecule % remaining after 24 hours at 37° C. ([5]; male): 100≤ %
CC1CC2(C)C(O)CCC2C2CCC3=CC(=O)CCC3=C12 (stereo not drawn) [CDB-4890, 11β, 4,9 diene-MNT]	15.5	6680	43.5	–	–	–	–
C[C@@H]1CC2=CC(=O)CC[C@]2(C)C2CC[C@@]3(C)C(CC[C@@H]3O)C21 (stereo partly drawn) [CDB-4910, 7α-methyl testosterone]	–	–	–	57.6	20.2	0.1	IC50 [2]: 7830 nM; IC50 ([3]; IC50 (nM) PR binding): 395 nM; Ventral Prostate (weight in gram) ([7]; Conc. in mmole 0.7): 0.076 gram; Ventral Prostate (weight in gram) ([7]; Conc. in mmole 2.8): 0.13 gram; Ventral Prostate (weight in gram) ([7]; Conc. in mmole 11.2): 0.14 gram
C[C@@H]1CC2CC(=O)CC[C@]2(C)C2CC[C@@]3(C)C(CC[C@@H]3O)C21 (stereo partly drawn) [CDB-4922, 7α-methyldihydro testosterone]	57.1	–	–	66.8	38.0	10.1	IC50 [2]: 26300 nM; IC50 ([3]; IC50 (nM) PR binding): 1890 nM
C[C@]12CC[C@H]3[C@@H](CCC4=CC(=O)CC[C@@]43C)[C@@H]1CC[C@@H]2O [Testosterone, reference compound]	–	–	–	31.4	0.1	0.1	Ventral Prostate (weight in gram) ([7]; Conc. in mmole 6.9): 0.12 gram
